Among the data in a compilation of properties of binary mixtures (doi:10.1016/j.molliq.2021.116805) are viscosity values, retold here.

A short description of the data set: xn = mol fraction of the nth substance listed. The settings on record: 101 kPa.

`CCCCCCCCCCCCCCCCCC[n+]1ccn(C)c1.O=S(=O)([N-]S(=O)(=O)C(F)(F)F)C(F)(F)F` + CCCCCCCCCCCCCCCCn1cc[n+](C)c1.O=S(=O)([N-]S(=O)(=O)C(F)(F)F)C(F)(F)F: the viscosity is, setting by setting: (333 K, x2 = 0.621) 59.3 mPa·s; (343 K, x2 = 0.621) 41.1 mPa·s; (353 K, x2 = 0.621) 29.6 mPa·s.
As to `CCCCCCCCCCCCCCCCCC[n+]1ccn(C)c1.O=S(=O)([N-]S(=O)(=O)C(F)(F)F)C(F)(F)F` + CCCCCCCCCCCCCC[n+]1ccn(C)c1.O=S(=O)([N-]S(=O)(=O)C(F)(F)F)C(F)(F)F, the viscosity (333 K, x2 = 0.7675) turned out to be 49.6 mPa·s; the viscosity (343 K, x2 = 0.7675) was 34.8 mPa·s; the viscosity (353 K, x2 = 0.7675) is on record as 25.4 mPa·s.
Turning to `CCCCCCCCCCCCCC[n+]1ccn(C)c1.O=S(=O)([N-]S(=O)(=O)C(F)(F)F)C(F)(F)F` + CCCCCCCCCCCCCCCCn1cc[n+](C)c1.O=S(=O)([N-]S(=O)(=O)C(F)(F)F)C(F)(F)F, the viscosity runs as follows: (313 K, x1 = 0.6709) 102.6 mPa·s; (323 K, x1 = 0.6709) 66.3 mPa·s; (333 K, x1 = 0.6709) 45.2 mPa·s; (343 K, x1 = 0.6709) 32 mPa·s; (353 K, x1 = 0.6709) 23.4 mPa·s.

What is called viscosity is the resistance of a fluid to flow. Low readings indicate easy flow, high ones sluggish flow.
